In assay [1] the target is T1, RAC-alpha serine/threonine-protein kinase (Homo sapiens, UniProt P31749). As to the kind of experiment: Inhibition of AKT.
Assay [2] in a line: Cytotoxicity against human MDA468 cells expressing AKT. It counts as functional, cell-based, MDA-MB-468.
The target of assay [3] is T1, RAC-alpha serine/threonine-protein kinase. As to the kind of experiment: Inhibition of AKT at < 10 uM.

Active and inactive are the calls of the source. No cut-off for these calls is given here.

T1 sequence (P31749 whole entry): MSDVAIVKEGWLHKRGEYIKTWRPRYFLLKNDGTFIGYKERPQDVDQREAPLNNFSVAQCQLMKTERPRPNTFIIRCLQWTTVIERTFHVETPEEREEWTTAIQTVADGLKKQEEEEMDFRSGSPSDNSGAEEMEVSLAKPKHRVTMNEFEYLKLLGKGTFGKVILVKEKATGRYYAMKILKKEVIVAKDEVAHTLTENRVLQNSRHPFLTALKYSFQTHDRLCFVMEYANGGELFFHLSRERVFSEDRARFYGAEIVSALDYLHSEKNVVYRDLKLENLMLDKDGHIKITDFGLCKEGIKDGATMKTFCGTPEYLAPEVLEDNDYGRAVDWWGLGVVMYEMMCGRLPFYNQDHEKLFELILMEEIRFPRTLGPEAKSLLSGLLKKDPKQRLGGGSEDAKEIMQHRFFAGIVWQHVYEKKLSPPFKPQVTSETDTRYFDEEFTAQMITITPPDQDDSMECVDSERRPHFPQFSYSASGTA

For `CCC[C@H]1O[C@@H]2CC(=O)O[C@@H]2C2=C1C(=O)c1c(OC)cccc1C2=O`, the IC50 was found to be 0.497 µM in assay [1] and 1.11 µM in assay [2] (Homo sapiens, MDA-MB-468).

For the compound `O=C1C[C@H]2OCC3=C(C(=O)c4ccccc4C3=O)[C@H]2O1`, the IC50 worked out at 0.044 µM in assay [1] and 0.8 µM in assay [2] (Homo sapiens, MDA-MB-468).

As to `O=C1C[C@H]2O[C@H](c3cccs3)C3=C(C(=O)c4ccccc4C3=O)[C@H]2O1`, the IC50 in assay [1] was 0.057 µM; in assay [2] (Homo sapiens, MDA-MB-468), 0.6 µM. For `C[C@H]1O[C@@H]2CC(=O)O[C@@H]2C2=C1C(=O)c1ccccc1C2=O`, in that order: 0.15 µM and 0.48 µM. With `CCOC(=O)C[C@@H]1CC2=C(C(=O)c3ccccc3C2=O)[C@@H](C)O1`, the outcome in assay [3] was inactive.

For the compound `CCOC(=O)C[C@@H]1CC2=C(C(=O)c3ccccc3C2=O)[C@@H](c2cccs2)O1`, the result in assay [3] was inactive. Consider `CCOC(=O)C[C@@H]1CC2=C(CO1)C(=O)c1ccccc1C2=O`, for which the outcome in assay [3] was inactive. With `O=C1C[C@H]2O[C@@H](c3cccc(O)c3)C3=C(C(=O)c4ccccc4C3=O)[C@H]2O1` (racemic), the IC50 in assay [1] came to 0.35 µM; in assay [2] (Homo sapiens, MDA-MB-468), 1 µM. For the compound `CCC[C@H]1O[C@@H]2CC(=O)O[C@@H]2C2=C1C(=O)c1ccccc1C2=O` (racemic), the IC50 is 0.163 µM in assay [1] and 0.6 µM in assay [2] (Homo sapiens, MDA-MB-468). For `CC1(C)O[C@@H]2CC(=O)O[C@@H]2C2=C1C(=O)c1ccccc1C2=O` (racemic), in that order: 1.44 µM and 0.23 µM. With `O=C1C[C@H]2O[C@H](COCc3ccccc3)C3=C(C(=O)c4ccccc4C3=O)[C@H]2O1` (racemic), the half-maximal inhibitory concentration (IC50) in assay [1] is 0.072 µM; in assay [2] (Homo sapiens, MDA-MB-468) it was 1 µM. In the same order, the values of `O=C1C[C@H]2O[C@@H](c3ccc(O)cc3)C3=C(C(=O)c4ccccc4C3=O)[C@H]2O1` (racemic) are 0.08 µM and 0.55 µM. Consider `O=C1C[C@H]2OC3(CCCC3)C3=C(C(=O)c4ccccc4C3=O)[C@H]2O1` (racemic), for which the half-maximal inhibitory concentration (IC50) in assay [1] turned out to be 0.295 µM; in assay [2] (Homo sapiens, MDA-MB-468) it was 1.6 µM. In the same order, the values of `Nc1ccc([C@@H]2O[C@@H]3CC(=O)O[C@@H]3C3=C2C(=O)c2ccccc2C3=O)cc1` (racemic) are 0.85 µM and 0.55 µM. In the same order, the values of `CCC[C@@H]1O[C@@H]2CC(=O)O[C@@H]2C2=C1C(=O)c1ccccc1C2=O` (racemic) are 0.383 µM and 1.3 µM.

Turning to `CCC[C@@H]1O[C@H](CC(=O)OCC)CC2=C1C(=O)c1ccccc1C2=O` (racemic), the outcome in assay [3] was inactive. On the same count and under the same terms, next, `CCC[C@H]1O[C@H](CC(=O)OCC)CC2=C1C(=O)c1ccccc1C2=O` (racemic): “inactive”. Still for that read-out and setting: next, `CCOC(=O)C[C@@H]1CC2=C(C(=O)c3ccccc3C2=O)C(C)(C)O1` (racemic): “inactive”. Take `CCOC(=O)C[C@@H]1CC2=C(C(=O)c3ccccc3C2=O)C2(CCCC2)O1` (racemic): in assay [3], the result was inactive. Same read-out and setting: for `CCOC(=O)C[C@@H]1CC2=C(C(=O)c3ccccc3C2=O)[C@@H](COCc2ccccc2)O1` (racemic) the value was “inactive”. As to `CCOC(=O)C[C@@H]1CC2=C(C(=O)c3ccccc3C2=O)[C@H](c2ccc(N)cc2)O1` (racemic), the result in assay [3] was inactive. In the case of `CCOC(=O)C[C@@H]1CC2=C(C(=O)c3ccccc3C2=O)[C@H](c2ccc(O)cc2)O1` (racemic), the result in assay [3] was inactive.

Consider `CCOC(=O)C[C@@H]1CC2=C(C(=O)c3ccccc3C2=O)[C@H](c2cccc(O)c2)O1` (racemic), for which the outcome in assay [3] was inactive. `O=C1C[C@H]2O[C@H](c3ccsc3)C3=C(C(=O)c4ccccc4C3=O)[C@H]2O1` (stereo in doubt; (+)): the half-inhibitory concentration (IC50) is 0.122 µM in assay [1] and 0.3 µM in assay [2] (Homo sapiens, MDA-MB-468). As for `CCOC(=O)C[C@@H]1CC2=C(C(=O)c3ccccc3C2=O)[C@@H](c2ccsc2)O1` (stereo in doubt; (+)), in assay [3], the result was inactive. For the compound `O=C1C[C@H]2O[C@H](c3ccsc3)C3=C(C(=O)c4ccccc4C3=O)[C@H]2O1` (stereo in doubt; (-)), the IC50 in assay [1] is 0.099 µM; in assay [2] (mda-mb-468), 0.41 µM. `CCOC(=O)C[C@@H]1CC2=C(C(=O)c3ccccc3C2=O)[C@@H](c2ccsc2)O1` (stereo in doubt; (-)): in assay [3], the outcome was inactive. In the case of `CCC[C@H]1O[C@H](CC(=O)O)CC2=C1C(=O)c1c(O)cccc1C2=O` [DEOXYFRENOLICIN], the concentration for half-maximal inhibition (IC50) came out at 0.424 µM in assay [1] and 0.33 µM in assay [2] (Homo sapiens, MDA-MB-468). Turning to `CCC[C@H]1O[C@@H]2CC(=O)O[C@@H]2C2=C1C(=O)c1c(O)cccc1C2=O` [FRENOLICIN B], the IC50 stood at 0.198 µM in assay [1] and 0.06 µM in assay [2] (Homo sapiens, MDA-MB-468).

What is called IC50 is the concentration that inhibits the measured activity by half. A low value points to greater potency.

The record behind these values is ChEMBL document CHEMBL1153413, “Pyranonaphthoquinone lactones: a new class of AKT selective kinase inhibitors alkylate a regulatory loop cysteine” (J Med Chem, 2009).
